Our source for the Activity, concentration and EC50 values is ChEMBL document CHEMBL1152698, “A novel class of allosteric modulators of AMPA/Kainate receptors” (Bioorg Med Chem Lett, 2009).

The species entered for series [1] is Rattus norvegicus. Put plainly: Potentiation of AMPA receptor mediated KA-induced current in Sprague-Dawley rat primary cerebellar granule neurons at 200 uM.
Series [2] in a line: Extracellular drug level in Sprague-Dawley rat hippocampus at 100 mg/kg, po after 4 hrs. Set-up: dose 100 mg/kg, route oral. The conditions noted are these: hippocampus extracellular fluid, read-out: Drug uptake. The class given is ADME, organism-based.
Series [3] in a line: Extracellular drug level in Sprague-Dawley rat hippocampus at 100 mg/kg, po after 6 hrs. Set-up: dose 100 mg/kg, route oral. The class given is ADME, organism-based. Particulars: hippocampus extracellular fluid, read-out: Drug uptake.
A short description of series [4]: Potentiation of AMPA receptor mediated KA-induced current in Sprague-Dawley rat primary cerebellar granule neurons.

Take `Nc1cc(Cl)c(Cl)cc1S(N)(=O)=O`: the Activity in series [1] is 35%.
The same measure, in the same setting: the result for `CC1Nc2ccc(Cl)cc2S(=O)(=O)N1` (racemic) reads 80%.
On to `CNc1ccc(Cl)cc1S(N)(=O)=O`, for which the Activity in series [1] worked out at 69%.
Still for that read-out and setting: the result for `CNS(=O)(=O)c1cc(Cl)ccc1N` reads 5%; that for `Nc1cc(Cl)ccc1S(N)(=O)=O`, 8%; that for `COc1ccc(S(N)(=O)=O)c(N)c1`, -5%.
Take `Nc1ccccc1S(N)(=O)=O`: in series [1], the Activity is -5%.
Regarding `Cc1cccc(S(N)(=O)=O)c1N`, the Activity in series [1] came out at 7%.
On the same count and under the same terms, for `Nc1ccc([N+](=O)[O-])cc1S(N)(=O)=O` the value was -8%.
The same measure, in the same setting: the result for `Nc1cc(Cl)c(S(N)(=O)=O)cc1S(N)(=O)=O` reads -6%.
On the same count and under the same terms, for `CCNS(=O)(=O)c1cc(Cl)ccc1N` the value was 12%.
In the case of `Nc1ccc(Cl)cc1S(N)(=O)=O`, the concentration at 4 h in series [2] is 12000 ng/mL. For the same compound, in series [3], the concentration at 6 h came out at 8000 ng/mL. The Activity in series [1] was 23%. Moreover, the EC50 in series [4] worked out at 284 µM.
`CCNc1ccc(Cl)cc1S(N)(=O)=O`: the Activity in series [1] is 91%.
On the same count and under the same terms, for `CC(C)Nc1ccc(Cl)cc1S(N)(=O)=O` the value was 32%; for `CCCNS(=O)(=O)c1cc(Cl)ccc1N`, 4%.
For the compound `CCCNc1ccc(Cl)cc1S(N)(=O)=O`, in series [1], the Activity was 80%. In series [4], the EC50 came to 134 µM.
